Experiments:
IL-6 = IL-6 ELISA, MM cells co-cultured with BMSCs; type: cell-based, human
AMPK = test: Kinase inhibitory profile; type: biochemical; conditions: Other Clinically-relevant Kinases; 10-point concentration assays
SR = test: NCI-60 panel cell growth screen; type: cell-based, human; conditions: SR (Leukemia)
U25 = test: NCI-60 panel cell growth screen; type: cell-based, human; conditions: U25 (CNS Cancer)
FGFR = test: Kinase inhibitory profile; type: biochemical; conditions: Other Clinically-relevant Kinases; 10-point concentration assays
SNB-75 = test: NCI-60 panel cell growth screen; type: cell-based, human; conditions: SNB-75 (CNS Cancer)
p110-β = p110-β (Homo sapiens, UniProt P42338); test: Kinase inhibitory profile / PIP3 production
p110-β, sequence (P42338 whole entry): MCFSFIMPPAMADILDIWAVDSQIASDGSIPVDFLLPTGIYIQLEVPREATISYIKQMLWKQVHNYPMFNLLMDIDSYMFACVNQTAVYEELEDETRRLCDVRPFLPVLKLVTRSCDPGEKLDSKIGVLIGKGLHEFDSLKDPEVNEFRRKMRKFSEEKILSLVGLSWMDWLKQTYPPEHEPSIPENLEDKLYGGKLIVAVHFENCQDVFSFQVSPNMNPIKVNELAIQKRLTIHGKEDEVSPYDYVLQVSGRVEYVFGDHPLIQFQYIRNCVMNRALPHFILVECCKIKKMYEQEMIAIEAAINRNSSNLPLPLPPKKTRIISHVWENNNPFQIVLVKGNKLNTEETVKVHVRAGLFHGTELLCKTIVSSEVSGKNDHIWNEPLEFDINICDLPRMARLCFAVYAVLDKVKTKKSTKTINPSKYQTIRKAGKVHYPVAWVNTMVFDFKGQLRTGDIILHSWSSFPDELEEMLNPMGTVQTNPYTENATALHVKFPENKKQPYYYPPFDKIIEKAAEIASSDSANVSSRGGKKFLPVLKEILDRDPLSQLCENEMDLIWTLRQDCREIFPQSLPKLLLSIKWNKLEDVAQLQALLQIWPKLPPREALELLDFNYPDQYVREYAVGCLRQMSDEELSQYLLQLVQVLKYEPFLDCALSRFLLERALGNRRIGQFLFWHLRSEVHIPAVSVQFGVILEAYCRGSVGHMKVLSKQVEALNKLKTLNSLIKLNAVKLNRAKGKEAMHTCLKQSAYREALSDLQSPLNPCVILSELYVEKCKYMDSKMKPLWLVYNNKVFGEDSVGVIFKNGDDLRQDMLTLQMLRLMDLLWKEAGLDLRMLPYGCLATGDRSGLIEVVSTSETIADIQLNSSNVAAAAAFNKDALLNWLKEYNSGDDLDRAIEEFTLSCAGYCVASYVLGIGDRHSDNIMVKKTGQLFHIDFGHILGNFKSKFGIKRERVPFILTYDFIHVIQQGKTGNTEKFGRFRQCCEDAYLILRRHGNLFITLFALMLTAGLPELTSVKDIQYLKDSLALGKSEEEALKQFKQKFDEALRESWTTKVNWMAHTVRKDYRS
p110-β, sequence (P27986 whole entry partner): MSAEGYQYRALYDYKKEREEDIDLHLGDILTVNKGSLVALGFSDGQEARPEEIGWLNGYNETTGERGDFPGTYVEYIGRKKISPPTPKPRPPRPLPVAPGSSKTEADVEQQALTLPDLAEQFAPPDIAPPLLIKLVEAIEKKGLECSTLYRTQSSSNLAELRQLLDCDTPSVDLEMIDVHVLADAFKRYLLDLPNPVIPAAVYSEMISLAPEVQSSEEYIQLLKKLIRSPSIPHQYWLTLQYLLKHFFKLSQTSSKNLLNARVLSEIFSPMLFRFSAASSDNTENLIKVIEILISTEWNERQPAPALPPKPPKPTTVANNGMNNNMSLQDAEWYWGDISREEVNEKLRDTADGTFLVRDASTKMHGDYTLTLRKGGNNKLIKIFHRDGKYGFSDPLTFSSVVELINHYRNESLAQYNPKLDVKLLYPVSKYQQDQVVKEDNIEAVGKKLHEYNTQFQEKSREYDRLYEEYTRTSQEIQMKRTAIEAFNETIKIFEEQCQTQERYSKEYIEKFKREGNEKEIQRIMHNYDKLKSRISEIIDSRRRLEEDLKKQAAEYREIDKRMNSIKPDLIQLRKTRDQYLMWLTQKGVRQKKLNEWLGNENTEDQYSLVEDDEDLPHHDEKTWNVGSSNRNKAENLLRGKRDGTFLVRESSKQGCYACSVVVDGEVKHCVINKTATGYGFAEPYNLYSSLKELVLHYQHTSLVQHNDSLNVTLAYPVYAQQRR
Procedure: (§1) To directly assess PI3K activity, PI3K was isolated by immunoprecipitation using an antibody to the p85 adapter subunit and the ability of the co-precipitated catalytic p110 subunit to convert PIP2 to PIP3 in a kinase reaction assessed by measuring the amount of PIP3 generated using a competitive ELISA [40, 41]. […] Lysates were centrifuged at 13,000 × rpm for 10 min and supernatants stored at −80°C. Frozen lysates were thawed and PI3K immunoprecipitated with 5 μl anti-PI3K p85 (Cell Signaling Technology, Danvers, MA) for 1 h at 4°C, followed by the addition of 60 μl of a 50% slurry of Protein A agarose beads for 1 h at 4°C. The immunoprecipitate was collected by centrifugation at 13,000 × rpm for 10 sec, washed 3 times in buffer A + 1% NP40, thrice with 0.1 M Tris-HCl, pH 7.4, 5 mM LiCl, 0.1 mM Na orthovanadate and twice with 10 mM Tris-HCl, pH 7.4, 150 mM NaCl, 5 mM ethylenediaminetetraacetic acid (EDTA), 0.1 mM Na orthovanadate. […] Reactions were incubated for 3 h at 37°C with 40 pmol PIP2 (Echelon Biosciences, Salt Lake City, UT). Reactions were stopped with EDTA (5 mM) and centrifuged at 13,000 × rpm at 4°C. Supernatants were transferred to a microtitre plate for a competitive ELISA (Echelon Biosciences) to quantify PIP3 generated. […] Absorbance was measured (450 nm) and PIP3 quantified using a standard curve generated with experimental samples and plotted on a log scale.

CCRF-CEM = test: NCI-60 panel cell growth screen; type: cell-based, human; conditions: CCRF-CEM (Leukemia)
PKC2-α = PKC2-α (Homo sapiens, UniProt O00443); test: Kinase inhibitory profile; type: biochemical; conditions: Class II PI3Ks; 10-point concentration assays
ERK1/2 = test: Immunoblot of ERK1/2 phosphorylation in MM cells; type: cell-based; conditions: DT97 500 nm or 1 uM for 48 h
MM.1S myeloma cells = test: Mouse xenograft model of myeloma; type: in vivo, mice; conditions: subcutaneous myeloma xenograft; intravenous; bortezomib 0.5 mg/kg, DT97 10 mg/kg
Procedure: Five week old nude mice flanks are injected subcutaneously with MM.1S myeloma cells. Tumors formed within two weeks and mice were then treated intravenously with vehicle, bortezomib, DT97 or both bortezomib and DT97.
Subcutaneous tumors were generated after injection of myeloma cells. […] Vehicle or bortezomib was administered on days 1, 4, 8 and 11. Mice were euthanized when tumors reached 2 cm^3, became ulcerated or elicited neurologic or musculoskeletal complications that limited mobility and feeding. Survival and tumor growth were evaluated from the first day of treatment. Shown is the average of replicate measurements. […] Kaplan-Meier survival curves comparison of NOD. SCID mice after subcutaneous injection of parental myeloma cells treated with vehicle, DT97, bortezomib or both.
Mice received intravenous injection of either vehicle (PBS in 10% DMSO); bortezomib (0.5 mg/kg), DT97 (10 mg/kg) or both bortezomib and DT97. Tumor volume (TV) measurements were made using a vernier caliper and calculated using the formula: TV = 0.5 (a × b^2) where a is the long diameter and b the short diameter. Mice were euthanized when tumors reached 2 cm^3, became ulcerated or elicited neurologic or musculoskeletal complications that limited mobility and feeding.
In vivo statistical tests were performed using the 2-tailed Student t test.

DNA-PK = DNA-PK (Homo sapiens, UniProt P78527); test: Kinase inhibitory profile; type: biochemical; conditions: Class IV PI3Ks; 10-point concentration assays
BMSCs = test: XTT viability of BMSCs; type: cell-based; conditions: 72 h, XTT assay
[1] = test system: peripheral blood mononuclear cells (PBMCs); test: Apoptosis (in situ cell death detection) in PBMCs; type: cell-based; conditions: Figure 5B
VPS34 = VPS34 (Homo sapiens, UniProt Q8NEB9); test: Kinase inhibitory profile; type: biochemical; conditions: Class III PI3Ks; 10-point concentration assays
VPS34, sequence (Q8NEB9 whole entry): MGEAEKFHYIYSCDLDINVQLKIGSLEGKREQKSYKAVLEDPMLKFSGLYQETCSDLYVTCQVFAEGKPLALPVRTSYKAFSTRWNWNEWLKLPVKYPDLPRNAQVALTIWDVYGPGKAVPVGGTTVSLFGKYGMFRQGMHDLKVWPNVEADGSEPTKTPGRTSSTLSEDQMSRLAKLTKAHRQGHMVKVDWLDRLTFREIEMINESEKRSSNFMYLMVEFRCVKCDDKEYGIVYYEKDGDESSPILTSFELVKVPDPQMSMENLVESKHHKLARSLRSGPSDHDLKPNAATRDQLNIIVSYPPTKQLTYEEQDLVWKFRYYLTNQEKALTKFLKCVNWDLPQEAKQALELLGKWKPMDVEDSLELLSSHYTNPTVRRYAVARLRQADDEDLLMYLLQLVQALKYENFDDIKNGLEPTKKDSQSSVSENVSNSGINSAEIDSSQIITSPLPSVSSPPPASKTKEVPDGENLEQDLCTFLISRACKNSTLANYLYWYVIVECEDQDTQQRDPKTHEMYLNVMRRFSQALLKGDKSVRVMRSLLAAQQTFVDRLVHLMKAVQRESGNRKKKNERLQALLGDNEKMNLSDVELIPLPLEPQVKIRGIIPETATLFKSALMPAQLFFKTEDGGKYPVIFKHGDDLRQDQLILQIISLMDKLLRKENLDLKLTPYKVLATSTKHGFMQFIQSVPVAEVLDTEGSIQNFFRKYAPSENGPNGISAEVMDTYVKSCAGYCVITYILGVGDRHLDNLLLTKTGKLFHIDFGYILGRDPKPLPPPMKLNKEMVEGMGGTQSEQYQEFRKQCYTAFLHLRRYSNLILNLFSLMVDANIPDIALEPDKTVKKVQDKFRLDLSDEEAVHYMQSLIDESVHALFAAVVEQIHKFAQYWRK

p110-δ = p110-δ (Homo sapiens, UniProt O00329); test: Kinase inhibitory profile / PIP3 production; design: Inhibitory profile (kinase inhibition): key to the marks not given beside the values
p110-δ, sequence (O00329 whole entry): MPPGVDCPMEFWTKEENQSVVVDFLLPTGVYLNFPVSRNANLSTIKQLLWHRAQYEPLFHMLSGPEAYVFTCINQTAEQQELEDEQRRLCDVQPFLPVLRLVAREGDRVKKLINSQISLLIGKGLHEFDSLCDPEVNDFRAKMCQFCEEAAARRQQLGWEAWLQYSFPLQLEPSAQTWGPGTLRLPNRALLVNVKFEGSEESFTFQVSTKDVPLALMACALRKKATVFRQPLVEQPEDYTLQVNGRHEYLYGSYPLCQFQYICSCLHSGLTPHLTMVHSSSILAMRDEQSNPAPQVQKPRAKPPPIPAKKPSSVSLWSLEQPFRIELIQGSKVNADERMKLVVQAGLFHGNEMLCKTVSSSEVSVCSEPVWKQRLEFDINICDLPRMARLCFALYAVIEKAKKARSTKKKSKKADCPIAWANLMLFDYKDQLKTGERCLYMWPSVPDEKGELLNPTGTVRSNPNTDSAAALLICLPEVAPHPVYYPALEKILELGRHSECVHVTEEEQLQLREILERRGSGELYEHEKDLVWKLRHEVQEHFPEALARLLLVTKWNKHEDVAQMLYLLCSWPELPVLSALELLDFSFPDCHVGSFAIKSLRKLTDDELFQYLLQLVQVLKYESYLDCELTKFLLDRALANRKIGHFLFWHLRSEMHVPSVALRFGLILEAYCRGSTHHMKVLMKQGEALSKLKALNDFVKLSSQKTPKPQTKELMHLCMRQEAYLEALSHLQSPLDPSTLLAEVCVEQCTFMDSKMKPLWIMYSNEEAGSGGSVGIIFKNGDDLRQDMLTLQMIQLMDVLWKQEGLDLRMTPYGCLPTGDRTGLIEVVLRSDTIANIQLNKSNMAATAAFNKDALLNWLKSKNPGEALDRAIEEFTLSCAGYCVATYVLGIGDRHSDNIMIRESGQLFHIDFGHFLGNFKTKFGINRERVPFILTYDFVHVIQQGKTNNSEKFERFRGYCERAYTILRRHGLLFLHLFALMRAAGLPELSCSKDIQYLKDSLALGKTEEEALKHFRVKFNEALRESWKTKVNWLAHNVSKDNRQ
p110-δ, sequence (P27986 whole entry partner): as the sequence (P27986 whole entry partner) above

p110-γ = p110-γ (Homo sapiens, UniProt P48736); test: Kinase inhibitory profile / PIP3 production
p110-γ, sequence (P48736 whole entry): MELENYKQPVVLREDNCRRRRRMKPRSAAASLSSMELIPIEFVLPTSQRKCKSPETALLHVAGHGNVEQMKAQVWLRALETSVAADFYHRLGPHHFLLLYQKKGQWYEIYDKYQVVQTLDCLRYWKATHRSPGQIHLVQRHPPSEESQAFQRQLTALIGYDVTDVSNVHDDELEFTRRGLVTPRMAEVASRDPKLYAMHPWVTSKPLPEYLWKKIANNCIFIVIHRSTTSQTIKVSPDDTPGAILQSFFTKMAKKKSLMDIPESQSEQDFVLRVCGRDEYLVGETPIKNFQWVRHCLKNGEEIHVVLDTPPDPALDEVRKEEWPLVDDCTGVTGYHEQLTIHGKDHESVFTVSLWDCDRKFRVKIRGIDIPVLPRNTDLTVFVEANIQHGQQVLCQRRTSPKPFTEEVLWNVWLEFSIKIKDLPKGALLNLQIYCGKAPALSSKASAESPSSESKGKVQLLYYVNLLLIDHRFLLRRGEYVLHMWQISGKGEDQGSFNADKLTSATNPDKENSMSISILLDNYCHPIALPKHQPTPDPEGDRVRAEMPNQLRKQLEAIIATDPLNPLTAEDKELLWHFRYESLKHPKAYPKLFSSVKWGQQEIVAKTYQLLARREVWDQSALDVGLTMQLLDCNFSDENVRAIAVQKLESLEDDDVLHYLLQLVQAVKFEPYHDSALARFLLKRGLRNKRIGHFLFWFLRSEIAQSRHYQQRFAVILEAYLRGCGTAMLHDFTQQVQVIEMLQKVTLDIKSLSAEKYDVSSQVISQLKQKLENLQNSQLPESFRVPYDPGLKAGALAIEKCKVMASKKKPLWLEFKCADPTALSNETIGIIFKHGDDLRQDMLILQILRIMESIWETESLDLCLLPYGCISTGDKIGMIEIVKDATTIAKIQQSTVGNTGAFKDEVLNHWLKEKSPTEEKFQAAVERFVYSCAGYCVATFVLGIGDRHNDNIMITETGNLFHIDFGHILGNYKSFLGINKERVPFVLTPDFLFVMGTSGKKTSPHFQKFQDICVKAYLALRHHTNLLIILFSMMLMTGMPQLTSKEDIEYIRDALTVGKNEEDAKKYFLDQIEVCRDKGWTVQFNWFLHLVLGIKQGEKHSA
Procedure: as §1

MM cells = test: Transwell chemotaxis of CFSE-labeled MM cells toward BMSCs; type: cell-based; conditions: counted at 72 h
Description: BMSCs induce the migration and homing (chemotaxis) of MM cells to BM. […] MM cells were placed in the upper chamber separated from BMSCs in the lower chamber by a semi-permeable membrane. […] It appears that DT97 treatment prevents MM migration, in part, through the reduction of cytokine production.

MOLT-4 = test: NCI-60 panel cell growth screen; type: cell-based, human; conditions: MOLT-4 (Leukemia)
PDGFR = test: Kinase inhibitory profile; type: biochemical; conditions: Other Clinically-relevant Kinases; 10-point concentration assays
SF-268 = test: NCI-60 panel cell growth screen; type: cell-based, human; conditions: SF-268 (CNS Cancer)
RPMI8226 cells = test: XTT viability of RPMI8226 cells after PIK3CD shRNA knockdown; type: cell-based; conditions: XTT assay
Procedure: Values represent the average of triplicate measurements. […] Values represent the average of triplicate measurements. […] Values represent the average of triplicate measurements.
Cells were plated, treated as indicated for 72 h and 2, 3-bis-(2-methoxy-4-nitro-5-sulfophenyl)-2H-tetrazolium-5-carboxanilide) added (Sigma-Aldrich) after activation with N-methyl dibenzopyrazine methyl sulfate (Sigma-Aldrich). Absorbance was measured and the effect on myeloma viability determined as previously described. Assays were performed in triplicate and the mean and standard deviation determined. Relative cell viability (mean ± SD) was calculated compared to readings from untreated cells.
shRNA in pLKO.1-TCR lentiviral cloning vectors were transfected into 293T packaging cells with packaging and envelope vector using lipofectamine 2000 (Thermo-Fisher). Viral supernatants were used to transduce myeloma cells. After 48 h, virus was collected and RPMI8226 cells transduced with vectors expressing scrambled (control) or p110-specific shRNA. Cells were mixed with virus and polybrene (8 μg/mL), centrifuged at 2000 × rpm for 90 min, incubated overnight, media changed and selected in puromycin.

SNB-19 = test: NCI-60 panel cell growth screen; type: cell-based, human; conditions: SNB-19 (CNS Cancer)
[2] = read-out: LC50 (the source's name)
[3] = Class I PI3Ks, 10-point concentration assays

Substance: N-[4-hydroxy-3-(8-quinolinylthio)-1-naphthyl]benzenesulfonamide [DT97]
- production of Il-6 (IL-6): induction was inhibited
- Inhibitory profile (kinase inhibition) (AMPK): +
- GI50 (SR): 426 nM
- TGI (SR): 1.72E-5
- Percent Growth (SR; log concentration −4.0): −15%
- Percent Growth (SR; log concentration −5.0): 5%
- Percent Growth (SR; log concentration −6.0): 13%
- Percent Growth (SR; log concentration −7.0): 113%
- Percent Growth (SR; log concentration −8.0): 109%
- CC50 (SR; [2]): > 100000 nM
- GI50 (U25): 780 nM
- TGI (U25): 2.42E-5
- Percent Growth (U25; log concentration −4.0): −13%
- Percent Growth (U25; log concentration −5.0): 8%
- Percent Growth (U25; log concentration −6.0): 43%
- Percent Growth (U25; log concentration −7.0): 107%
- Percent Growth (U25; log concentration −8.0): 103%
- CC50 (U25; [2]): > 100000 nM
- Inhibitory profile (kinase inhibition) (FGFR): none
- GI50 (SNB-75): 3230 nM
- TGI (SNB-75): 1.69E-5
- Percent Growth (SNB-75; log concentration −4.0): −100%
- Percent Growth (SNB-75; log concentration −5.0): 29%
- Percent Growth (SNB-75; log concentration −6.0): 75%
- Percent Growth (SNB-75; log concentration −7.0): 73%
- Percent Growth (SNB-75; log concentration −8.0): 76%
- CC50 (SNB-75; [2]): 41200 nM
- Inhibitory profile (kinase inhibition) (p110-β; [3]): none
- production of PIP3 (dose-dependent effect) (p110-β; p110-β isoform, Figure 4B): no effect
- GI50 (CCRF-CEM): 426 nM
- TGI (CCRF-CEM): 1.60E-5
- Percent Growth (CCRF-CEM; log concentration −4.0): −7%
- Percent Growth (CCRF-CEM; log concentration −5.0): 2%
- Percent Growth (CCRF-CEM; log concentration −6.0): 17%
- Percent Growth (CCRF-CEM; log concentration −7.0): 106%
- Percent Growth (CCRF-CEM; log concentration −8.0): 104%
- CC50 (CCRF-CEM; [2]): > 100000 nM
- Inhibitory profile (kinase inhibition) (PKC2-α): none
- phosphorylation of ERK1/2 at Thre202/Tyr-204 (ERK1/2): reduced the phosphorylation
- overall survival (OS) (MM.1S myeloma cells): 16 days
- Inhibitory profile (kinase inhibition) (DNA-PK): +
- viability (BMSCs): did not significantly reduce the viability
- apoptosis [1]: did not induce apoptosis
- Inhibitory profile (kinase inhibition) (VPS34): none
- Inhibitory profile (kinase inhibition) (p110-δ; [3]): +++
- production of PIP3 (dose-dependent effect) (p110-δ; p110-δ isoform, Figure 4B): most potently
- Inhibitory profile (kinase inhibition) (p110-γ; [3]): none
- production of PIP3 (dose-dependent effect) (p110-γ; p110-γ isoform, Figure 4B): no effect
- migration of MM cells into the lower chambers with BMSCs (MM cells): reduced the migration
- GI50 (MOLT-4): 546 nM
- LC50 (MOLT-4): > 100000 nM
- TGI (MOLT-4): 5.53E-6
- Percent Growth (MOLT-4; log concentration −4.0): −28%
- Percent Growth (MOLT-4; log concentration −5.0): 9%
- Percent Growth (MOLT-4; log concentration −6.0): 27%
- Percent Growth (MOLT-4; log concentration −7.0): 116%
- Percent Growth (MOLT-4; log concentration −8.0): 111%
- Inhibitory profile (kinase inhibition) (PDGFR): none
- GI50 (SF-268): 1480 nM
- TGI (SF-268): 1.28E-5
- Percent Growth (SF-268; log concentration −4.0): −68%
- Percent Growth (SF-268; log concentration −5.0): 8%
- Percent Growth (SF-268; log concentration −6.0): 59%
- Percent Growth (SF-268; log concentration −7.0): 100%
- Percent Growth (SF-268; log concentration −8.0): 98%
- CC50 (SF-268; [2]): 57700 nM
- viability (RPMI8226 cells): little effect
- GI50 (SNB-19): 1980 nM
- TGI (SNB-19): 2.14E-5
- Percent Growth (SNB-19; log concentration −4.0): −59%
- Percent Growth (SNB-19; log concentration −5.0): 29%
- Percent Growth (SNB-19; log concentration −6.0): 59%
- Percent Growth (SNB-19; log concentration −7.0): 94%
- Percent Growth (SNB-19; log concentration −8.0): 95%
- CC50 (SNB-19; [2]): 78300 nM

From publication PMC5122408, “High throughput chemical library screening identifies a novel p110-δ inhibitor that potentiates the anti-myeloma effect of bortezomib” (Oncotarget, 2016)
